Reference: patent publication US20100256243A1, “Dosing Regimen for the Treatment of Alzheimer's Disease With Sulfonyl Fluorides” (priority 2009, published 2010)
Residue numbers refer to the chain shown, from its start. Values joined by “and” are separate entries in the source; they are usually repeats but may differ in a detail not shown here. Equal values may be shown once. “Also recorded” adds a separate entry of the source.

Experiments:
rats [1] = assay: Daily dosing with 1.0 mg/kg MSF/peanut oil in rats (clinical signs of distress and/or death); type: in vivo
rats [2] = assay: Alternating day dosing with 2.0 mg/kg MSF/peanut oil in rats (death); type: in vivo; settings: 2 mg/kg every other day; for Number Alive/Numbered Treated / lethality: oral
Description: To confirm the “pulsing” theory for MSF administration, the inventor continued the experiment described above and extended MSF treatment to double the total lethal dose observed in Example 1 (from 4 mg/kg to 8 mg/kg). Rats in were treated at 2 mg/kg/every other day for 2 more round (total of 8 mg/kg in 8 days).

animals = assay: Acute oral toxicity (LD50) of MSF in animals; type: in vivo, rats
Description: The acute oral LD50, as indicated by the data, was determined to be greater than 3 mg/kg but less than 4 mg/kg.

[3] = biological target: T1, brain acetylcholinesterase (Rattus norvegicus, UniProt P37136); settings: cited from earlier work
T1 construct: host or cells: rodent brain, dosed in vivo
T1 sequence (P37136 32-614): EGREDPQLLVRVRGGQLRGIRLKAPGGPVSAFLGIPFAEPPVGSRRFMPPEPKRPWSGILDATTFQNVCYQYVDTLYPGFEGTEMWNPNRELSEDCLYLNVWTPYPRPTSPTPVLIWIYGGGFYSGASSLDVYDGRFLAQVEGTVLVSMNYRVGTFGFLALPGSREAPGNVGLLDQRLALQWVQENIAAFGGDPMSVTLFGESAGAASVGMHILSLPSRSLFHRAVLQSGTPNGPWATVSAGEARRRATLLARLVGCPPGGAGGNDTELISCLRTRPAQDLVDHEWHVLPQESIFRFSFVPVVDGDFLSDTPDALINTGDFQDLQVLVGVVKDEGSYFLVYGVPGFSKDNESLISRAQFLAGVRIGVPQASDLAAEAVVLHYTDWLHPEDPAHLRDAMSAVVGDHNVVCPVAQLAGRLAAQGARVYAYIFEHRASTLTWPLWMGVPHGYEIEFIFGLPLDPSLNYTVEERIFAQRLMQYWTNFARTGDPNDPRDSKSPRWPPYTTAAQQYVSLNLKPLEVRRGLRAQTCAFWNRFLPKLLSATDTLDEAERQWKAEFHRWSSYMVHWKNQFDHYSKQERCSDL

[4] = tested on: brain acetylcholinesterase; settings: cited from earlier work
brain AChE [5] = biological target: T2, brain AChE (Mus musculus, UniProt P21836); settings: ex vivo, mice, without toxicity (Kobayashi et al., 1999); cited from earlier work
T2 construct: host or cells: mouse brain, ex vivo
T2 sequence (P21836 32-614): T1 sequence (P37136 32-614) with I59V, T109A, S128A, T144A, S271A, D313E, A392T, V467T, Q478K, R499Q

brain AChE [6] = biological target: T3, brain AChE (Rattus norvegicus, UniProt P37136); settings: ex vivo, rats, without toxicity (Moss et al., 1985); cited from earlier work
T3 construct: host or cells: rat brain, ex vivo
T3 sequence (P37136 32-614): T1 sequence (P37136 32-614)

[7] = biological target: T4, acetylcholinesterase in the brain (Rattus norvegicus, UniProt P37136); settings: cerebrally ischemic animals (U.S. Patent Publication 2003/0087959); cited from earlier work
T4 construct: host or cells: brain of cerebrally ischemic animals, dosed in vivo
T4 sequence (P37136 32-614): T1 sequence (P37136 32-614)

[8] = tested on: cerebrally ischemic animals; settings: compared to untreated controls (U.S. Patent Publication 2003/0087959); cited from earlier work
brain AChE [9] = settings: oral MSF 0.5 mg/kg daily, after 5 days of administration; cited from earlier work
[10] = tested on: enzyme in the periphery (cholinesterase); settings: rodents, administered daily at low doses (Moss et al., 1988); cited from earlier work
human cortex AChE = biological target: T5, human cortex AChE (Homo sapiens, UniProt P22303); settings: in vitro (Pacheco et al., 1995); cited from earlier work
T5 construct: host or cells: human cortex, in vitro
T5 sequence (P22303 32-614): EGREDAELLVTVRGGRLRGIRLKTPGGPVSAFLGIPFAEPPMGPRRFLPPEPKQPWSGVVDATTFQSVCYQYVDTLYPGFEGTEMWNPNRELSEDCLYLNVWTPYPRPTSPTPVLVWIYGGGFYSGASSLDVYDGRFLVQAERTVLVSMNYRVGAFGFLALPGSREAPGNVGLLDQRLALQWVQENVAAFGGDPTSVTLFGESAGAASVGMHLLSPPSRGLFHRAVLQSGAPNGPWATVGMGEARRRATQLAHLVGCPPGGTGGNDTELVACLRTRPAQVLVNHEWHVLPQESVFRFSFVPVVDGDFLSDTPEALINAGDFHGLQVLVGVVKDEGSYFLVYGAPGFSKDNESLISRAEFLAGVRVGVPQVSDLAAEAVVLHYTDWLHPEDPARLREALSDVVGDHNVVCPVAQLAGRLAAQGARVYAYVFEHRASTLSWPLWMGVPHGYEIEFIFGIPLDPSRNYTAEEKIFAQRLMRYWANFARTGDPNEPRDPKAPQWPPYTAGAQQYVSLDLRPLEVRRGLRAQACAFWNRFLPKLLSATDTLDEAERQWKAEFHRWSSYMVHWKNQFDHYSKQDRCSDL

rats [11] = settings: daily doses (Palacios-Esquivel et al., 1993); cited from earlier work
aged rats = settings: daily doses (Malin et al., 1993); cited from earlier work
rats [12] = settings: daily doses (Borlongan et al., 2005); cited from earlier work
[13] = tested on: patients with senile dementia of Alzheimer type; settings: patients with senile dementia of Alzheimer type (U.S. Pat. No. 5,798,392); cited from earlier work
[14] = tested on: septal choline acetyltransferase; settings: cerebrally ischemic animals, versus vehicle-treated animals (U.S. Patent Publication 2003/0087959); cited from earlier work
[15] = relatively small doses over a long period of time (Moss et al., 1988; 1985)

CS(=O)(=O)F [MSF, methanesulfonyl fluoride]
clinical signs of distress and/or death (rats [1]; oral gavage, 1.0 mg/kg daily, MSF/peanut oil 1.0 mg/ml, 1 mg/kg): high toxicity and animal deaths
Number Alive/Numbered Treated (rats [1]; oral, 1 mg/kg daily, 4 days): 0/7 (4 males + 3 female)
animals survived (rats [2]; total of 8 mg/kg in 8 days): 83.3%
Number Alive/Numbered Treated (rats [2]; 4 days (total 4 mg/kg)): 6/6 (3 males + 3 female)
lethality (rats [2]; 4 days (total 4 mg/kg)): no lethal event; also recorded: By Day 4, all rats were alive and it was decided to continue the treatment
Number Alive/Numbered Treated (rats [2]; 8 days (total 8 mg/kg)): 5/6 (3 males + 3 female) and 5/6
lethality (rats [2]; 8 days (total 8 mg/kg), follow-up over two weeks): 1 animal was found dead
Number Dead/Number Treated, Combination (animals; 1 mg/kg (0.4 mg/mL)): 0/10
Number Dead/Number Treated, Females (animals; 1 mg/kg (0.4 mg/mL)): 0/5
Number Dead/Number Treated, Males (animals; 1 mg/kg (0.4 mg/mL)): 0/5
Number Dead/Number Treated, Combination (animals; 2 mg/kg (0.8 mg/mL)): 0/10
Number Dead/Number Treated, Females (animals; 2 mg/kg (0.8 mg/mL)): 0/5
Number Dead/Number Treated, Males (animals; 2 mg/kg (0.8 mg/mL)): 0/5
Number Dead/Number Treated, Combination (animals; 3 mg/kg (1.2 mg/mL)): 1/10
Number Dead/Number Treated, Females (animals; 3 mg/kg (1.2 mg/mL)): 1/5
Number Dead/Number Treated, Males (animals; 3 mg/kg (1.2 mg/mL)): 0/5
Number Dead/Number Treated, Combination (animals; 4 mg/kg (1.6 mg/mL)): 10/10
Number Dead/Number Treated, Females (animals; 4 mg/kg (1.6 mg/mL)): 5/5
Number Dead/Number Treated, Males (animals; 4 mg/kg (1.6 mg/mL)): 5/5
inhibition of rodent brain acetylcholinesterase [3, 15]: 80-90%
inhibition of brain cholinesterase (average) ([3]; rodents, administered daily at low doses (Moss et al., 1988)): 90%
inhibition of brain AChE ([4]; ex vivo, monkey cortex, without toxicity (Moss et al., 1988)): up to 80%
inhibition of monkey brain acetylcholinesterase [4, 15]: 80-90%
inhibition of brain AChE (brain AChE [5]): up to 80%
inhibition of brain AChE (brain AChE [6]): up to 80%
inhibition of acetylcholinesterase in the brain [7]: about 90%
cognitive performance [8]: improved cognitive performance
inhibition in the brain (brain AChE [9]): 90%
inhibition of enzyme in the periphery [10]: less than 30%
selectivity for inhibition of human cortex AChE compared to butyrylcholinesterase (human cortex AChE): highly selective
reversing scopolamine-induced amnesia (rats [11]): highly effective
reversing normal age-related memory impairment (aged rats): highly effective
reversing ischemia-induced cognitive deficits (rats [12]): highly effective
cognitive performance in patients [13]: improvement in cognitive performance
septal choline acetyltransferase immunoreactivity [14]: more intense septal choline acetyltransferase immunoreactivity
